Source: article PMC10174618, “Monoterpenoid aryl hydrocarbon receptor allosteric antagonists protect against ultraviolet skin damage in female mice” (Nature Communications, 2023)

Assays:
Assay in all cases: biochemical
Set-up in all cases: KINOMEscan scanMAX active site-directed competition binding assay, percent of control, 468 kinases
Conditions in all cases: competition binding, percent of control
PAK2 = PAK2 (Homo sapiens, UniProt Q13177)
Method in brief: (§1)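 KINOMEscan active site-directed competition binding assay against 468 human kinases with 100 μM S-carvone. Binding expressed as % of control, with 35% of control as the inhibition threshold.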

PIK3CD = PIK3CD (Homo sapiens, UniProt O00329)
Method in brief: as §1

BMPR2 = BMPR2 (Homo sapiens, UniProt Q13873)
Method in brief: as §1

WNK4 = WNK4 (Homo sapiens, UniProt Q96J92)
Chain of WNK4 (Q96J92 whole entry): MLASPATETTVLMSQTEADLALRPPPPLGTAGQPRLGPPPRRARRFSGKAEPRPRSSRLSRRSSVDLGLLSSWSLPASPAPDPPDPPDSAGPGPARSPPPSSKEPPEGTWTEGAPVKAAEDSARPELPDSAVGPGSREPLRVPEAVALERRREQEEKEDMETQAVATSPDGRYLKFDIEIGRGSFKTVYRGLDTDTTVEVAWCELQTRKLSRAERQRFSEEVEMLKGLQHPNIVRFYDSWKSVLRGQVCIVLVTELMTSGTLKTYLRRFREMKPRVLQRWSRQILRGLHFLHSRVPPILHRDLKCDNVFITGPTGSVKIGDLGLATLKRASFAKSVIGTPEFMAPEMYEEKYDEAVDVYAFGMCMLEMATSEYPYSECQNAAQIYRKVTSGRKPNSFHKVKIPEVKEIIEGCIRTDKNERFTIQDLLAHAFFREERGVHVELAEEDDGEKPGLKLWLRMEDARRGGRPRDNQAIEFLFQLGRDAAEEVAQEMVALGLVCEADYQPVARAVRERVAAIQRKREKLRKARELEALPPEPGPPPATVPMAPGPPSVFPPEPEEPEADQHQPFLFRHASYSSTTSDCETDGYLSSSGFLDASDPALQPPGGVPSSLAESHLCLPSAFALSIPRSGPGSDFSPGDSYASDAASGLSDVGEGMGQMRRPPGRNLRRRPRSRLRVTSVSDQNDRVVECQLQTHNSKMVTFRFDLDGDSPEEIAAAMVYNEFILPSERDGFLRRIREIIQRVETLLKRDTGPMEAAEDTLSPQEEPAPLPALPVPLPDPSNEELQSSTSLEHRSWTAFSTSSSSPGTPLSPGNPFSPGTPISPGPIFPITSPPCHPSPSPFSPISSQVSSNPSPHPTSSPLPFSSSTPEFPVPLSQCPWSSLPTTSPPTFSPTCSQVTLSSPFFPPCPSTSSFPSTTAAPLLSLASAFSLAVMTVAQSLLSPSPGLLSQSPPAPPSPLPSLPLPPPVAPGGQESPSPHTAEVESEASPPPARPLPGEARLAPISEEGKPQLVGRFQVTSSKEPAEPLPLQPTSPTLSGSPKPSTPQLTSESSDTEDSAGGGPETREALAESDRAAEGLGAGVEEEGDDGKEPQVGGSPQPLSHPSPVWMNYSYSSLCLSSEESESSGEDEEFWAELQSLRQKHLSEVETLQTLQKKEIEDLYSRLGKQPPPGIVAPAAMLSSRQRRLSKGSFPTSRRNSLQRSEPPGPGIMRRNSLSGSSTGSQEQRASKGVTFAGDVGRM
Method in brief: as §1

MET = MET (Homo sapiens, UniProt P08581)
Chain of MET (P08581 whole entry): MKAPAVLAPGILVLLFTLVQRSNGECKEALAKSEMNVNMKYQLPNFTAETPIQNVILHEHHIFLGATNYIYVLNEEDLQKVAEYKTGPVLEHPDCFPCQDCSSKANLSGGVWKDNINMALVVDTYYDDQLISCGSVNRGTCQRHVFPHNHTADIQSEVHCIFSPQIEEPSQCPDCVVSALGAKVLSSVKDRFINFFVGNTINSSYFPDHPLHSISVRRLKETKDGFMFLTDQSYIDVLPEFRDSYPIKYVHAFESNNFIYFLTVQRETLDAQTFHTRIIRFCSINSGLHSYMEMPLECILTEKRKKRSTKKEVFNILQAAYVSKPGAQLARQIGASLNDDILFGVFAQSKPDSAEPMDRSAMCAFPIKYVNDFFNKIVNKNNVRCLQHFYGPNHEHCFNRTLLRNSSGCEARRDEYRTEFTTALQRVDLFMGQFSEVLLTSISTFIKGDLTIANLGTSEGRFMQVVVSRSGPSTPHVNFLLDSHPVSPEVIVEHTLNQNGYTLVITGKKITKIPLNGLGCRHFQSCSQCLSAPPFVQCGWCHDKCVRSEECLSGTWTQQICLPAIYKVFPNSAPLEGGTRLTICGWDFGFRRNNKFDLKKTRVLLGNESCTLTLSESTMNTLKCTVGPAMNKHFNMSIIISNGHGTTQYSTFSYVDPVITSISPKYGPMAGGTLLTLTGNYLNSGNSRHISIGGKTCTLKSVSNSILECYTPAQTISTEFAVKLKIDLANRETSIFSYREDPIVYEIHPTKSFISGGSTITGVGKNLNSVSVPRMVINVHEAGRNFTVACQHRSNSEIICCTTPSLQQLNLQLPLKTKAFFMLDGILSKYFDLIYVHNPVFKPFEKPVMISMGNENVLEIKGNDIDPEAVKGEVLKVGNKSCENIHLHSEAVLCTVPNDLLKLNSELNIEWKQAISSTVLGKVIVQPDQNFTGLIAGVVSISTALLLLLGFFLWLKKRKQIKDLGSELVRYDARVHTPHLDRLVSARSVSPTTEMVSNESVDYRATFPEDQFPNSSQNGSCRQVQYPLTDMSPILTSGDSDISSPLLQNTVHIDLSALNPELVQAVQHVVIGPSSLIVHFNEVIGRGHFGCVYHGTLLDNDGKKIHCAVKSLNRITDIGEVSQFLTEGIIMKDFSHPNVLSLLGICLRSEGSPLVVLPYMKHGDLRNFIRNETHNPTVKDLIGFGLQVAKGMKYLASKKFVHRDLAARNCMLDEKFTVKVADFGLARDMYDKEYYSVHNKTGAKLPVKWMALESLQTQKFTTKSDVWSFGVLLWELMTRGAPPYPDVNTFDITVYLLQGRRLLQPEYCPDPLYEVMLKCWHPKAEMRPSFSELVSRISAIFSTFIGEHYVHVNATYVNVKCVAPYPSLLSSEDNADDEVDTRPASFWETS
Method in brief: as §1

KIT(A829P) = KIT(A829P) (Homo sapiens, UniProt P10721, A829P)
Method in brief: as §1

CLK3 = CLK3 (Homo sapiens, UniProt P49761)
Chain of CLK3 (P49761 whole entry): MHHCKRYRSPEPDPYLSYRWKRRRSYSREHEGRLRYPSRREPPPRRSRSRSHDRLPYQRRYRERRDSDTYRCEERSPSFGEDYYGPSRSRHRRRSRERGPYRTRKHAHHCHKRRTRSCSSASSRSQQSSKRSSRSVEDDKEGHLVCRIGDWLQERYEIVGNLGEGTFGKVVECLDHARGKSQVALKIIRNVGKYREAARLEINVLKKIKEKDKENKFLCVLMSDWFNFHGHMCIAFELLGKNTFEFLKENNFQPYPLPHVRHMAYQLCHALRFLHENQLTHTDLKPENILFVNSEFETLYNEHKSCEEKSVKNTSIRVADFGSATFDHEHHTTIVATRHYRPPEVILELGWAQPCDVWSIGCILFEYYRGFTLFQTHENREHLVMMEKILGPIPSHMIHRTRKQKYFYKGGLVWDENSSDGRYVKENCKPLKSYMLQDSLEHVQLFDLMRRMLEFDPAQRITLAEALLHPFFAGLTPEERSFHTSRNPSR
Method in brief: as §1

STK33 = STK33 (Homo sapiens, UniProt Q9BYT3)
Method in brief: as §1

PIM1 = PIM1 (Homo sapiens, UniProt P11309)
Chain of PIM1 (P11309 whole entry): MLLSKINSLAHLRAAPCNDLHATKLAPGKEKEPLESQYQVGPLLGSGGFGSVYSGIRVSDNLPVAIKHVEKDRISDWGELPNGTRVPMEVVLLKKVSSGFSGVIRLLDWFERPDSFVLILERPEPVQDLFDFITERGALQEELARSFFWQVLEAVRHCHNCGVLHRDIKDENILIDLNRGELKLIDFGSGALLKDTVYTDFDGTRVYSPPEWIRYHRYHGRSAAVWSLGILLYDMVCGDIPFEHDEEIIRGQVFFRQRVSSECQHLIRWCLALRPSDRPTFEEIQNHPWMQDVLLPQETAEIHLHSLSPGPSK
Method in brief: as §1

FLT3(R834Q) = FLT3(R834Q) (Homo sapiens, UniProt P36888, R834Q)
Method in brief: as §1

PIK4CB = target: T1, PIK4CB (Homo sapiens, UniProt Q9UBF8)
T1 construct: gene PI4KB
Method in brief: as §1

FLT4 = FLT4 (Homo sapiens, UniProt P35916)
Method in brief: as §1

MEK1 = target: T2, MEK1 (Homo sapiens, UniProt Q02750)
T2 construct: gene MAP2K1
Method in brief: as §1

CSNK1G3 = CSNK1G3 (Homo sapiens, UniProt Q9Y6M4)
Method in brief: as §1

ULK2 = ULK2 (Homo sapiens, UniProt Q8IYT8)
Method in brief: as §1

PIK3CG = PIK3CG (Homo sapiens, UniProt P48736)
Chain of PIK3CG (P48736 whole entry): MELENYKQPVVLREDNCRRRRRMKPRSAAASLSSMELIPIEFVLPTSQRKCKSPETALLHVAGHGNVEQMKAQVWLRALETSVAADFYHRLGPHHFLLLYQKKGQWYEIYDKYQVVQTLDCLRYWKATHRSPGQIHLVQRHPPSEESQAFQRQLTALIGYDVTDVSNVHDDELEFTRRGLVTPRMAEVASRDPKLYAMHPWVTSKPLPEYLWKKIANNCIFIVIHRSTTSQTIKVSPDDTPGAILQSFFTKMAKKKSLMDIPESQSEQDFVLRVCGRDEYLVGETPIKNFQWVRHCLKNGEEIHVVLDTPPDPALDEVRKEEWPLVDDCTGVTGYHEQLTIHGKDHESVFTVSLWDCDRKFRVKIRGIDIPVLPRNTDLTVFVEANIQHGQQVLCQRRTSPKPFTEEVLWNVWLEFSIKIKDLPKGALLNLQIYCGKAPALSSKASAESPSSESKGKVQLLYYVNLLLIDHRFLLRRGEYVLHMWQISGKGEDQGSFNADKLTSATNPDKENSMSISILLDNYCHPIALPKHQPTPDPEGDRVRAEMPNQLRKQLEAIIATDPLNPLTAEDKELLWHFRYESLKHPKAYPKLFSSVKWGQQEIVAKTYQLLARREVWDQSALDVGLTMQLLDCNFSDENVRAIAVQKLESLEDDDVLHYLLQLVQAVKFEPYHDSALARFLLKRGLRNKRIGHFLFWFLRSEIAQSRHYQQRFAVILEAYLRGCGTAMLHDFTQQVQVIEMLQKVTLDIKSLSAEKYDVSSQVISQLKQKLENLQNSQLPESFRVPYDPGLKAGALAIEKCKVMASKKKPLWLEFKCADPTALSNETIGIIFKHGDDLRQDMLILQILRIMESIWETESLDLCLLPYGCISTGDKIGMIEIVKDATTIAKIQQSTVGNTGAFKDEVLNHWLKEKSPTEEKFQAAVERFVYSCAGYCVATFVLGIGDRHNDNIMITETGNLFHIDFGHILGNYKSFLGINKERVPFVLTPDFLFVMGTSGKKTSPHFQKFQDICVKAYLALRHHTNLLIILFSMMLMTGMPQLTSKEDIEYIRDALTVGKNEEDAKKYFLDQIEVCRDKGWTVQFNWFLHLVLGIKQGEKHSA
Method in brief: as §1

PIK3CA(C420R) = PIK3CA(C420R) (Homo sapiens, UniProt P42336, C420R)
Method in brief: as §1

NLK = NLK (Homo sapiens, UniProt Q9UBE8)
Method in brief: as §1

MAPKAPK5 = MAPKAPK5 (Homo sapiens, UniProt Q8IW41)
Chain of MAPKAPK5 (Q8IW41 whole entry): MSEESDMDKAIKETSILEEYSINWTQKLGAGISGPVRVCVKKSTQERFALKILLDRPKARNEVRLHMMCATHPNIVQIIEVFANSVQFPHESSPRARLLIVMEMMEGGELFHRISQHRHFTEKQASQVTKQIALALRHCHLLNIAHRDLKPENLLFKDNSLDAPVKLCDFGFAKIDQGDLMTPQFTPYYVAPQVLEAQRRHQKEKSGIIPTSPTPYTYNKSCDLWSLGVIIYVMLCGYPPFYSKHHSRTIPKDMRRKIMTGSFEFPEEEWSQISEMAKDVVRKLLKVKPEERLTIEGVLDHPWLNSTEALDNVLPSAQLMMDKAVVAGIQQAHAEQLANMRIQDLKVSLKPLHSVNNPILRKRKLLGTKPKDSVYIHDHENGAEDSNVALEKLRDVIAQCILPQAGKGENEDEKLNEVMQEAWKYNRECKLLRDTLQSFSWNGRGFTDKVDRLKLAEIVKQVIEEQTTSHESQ
Method in brief: as §1

ACVR1 = ACVR1 (Homo sapiens, UniProt Q04771)
Method in brief: as §1

PIK3CA(Q546K) = PIK3CA(Q546K) (Homo sapiens, UniProt P42336, Q546K)
Method in brief: as §1

CSNK1G1 = CSNK1G1 (Homo sapiens, UniProt Q9HCP0)
Method in brief: as §1

C=C(C)[C@H]1CC=C(C)C(=O)C1 [S-carvone]
remaining binding at 100 µM (PAK2): 98%
remaining binding at 100 µM (PIK3CD): 87%
remaining binding at 100 µM (BMPR2): 79%
remaining binding at 100 µM (WNK4): 77%
remaining binding at 100 µM (MET): 90%
remaining binding at 100 µM (KIT(A829P)): 84%
remaining binding at 100 µM (CLK3): 99%
remaining binding at 100 µM (STK33): 100%
remaining binding at 100 µM (PIM1): 77%
remaining binding at 100 µM (FLT3(R834Q)): 83%
remaining binding at 100 µM (PIK4CB): 65%
remaining binding at 100 µM (FLT4): 90%
remaining binding at 100 µM (MEK1): 71%
remaining binding at 100 µM (CSNK1G3): 100%
remaining binding at 100 µM (ULK2): 75%
remaining binding at 100 µM (PIK3CG): 69%
remaining binding at 100 µM (PIK3CA(C420R)): 96%
remaining binding at 100 µM (NLK): 81%
remaining binding at 100 µM (MAPKAPK5): 87%
remaining binding at 100 µM (ACVR1): 89%
remaining binding at 100 µM (PIK3CA(Q546K)): 83%
remaining binding at 100 µM (CSNK1G1): 100%
